Here are results for 20 compounds from patent US7495018B2, “Substituted 1,3-thiazole compounds, their production and use” (Takeda Pharmaceutical Company Limited, priority 2000, dated 2009).

The term melting point denotes the temperature, or range, at which the solid turns liquid.

T1 sequence (Q16539 whole entry): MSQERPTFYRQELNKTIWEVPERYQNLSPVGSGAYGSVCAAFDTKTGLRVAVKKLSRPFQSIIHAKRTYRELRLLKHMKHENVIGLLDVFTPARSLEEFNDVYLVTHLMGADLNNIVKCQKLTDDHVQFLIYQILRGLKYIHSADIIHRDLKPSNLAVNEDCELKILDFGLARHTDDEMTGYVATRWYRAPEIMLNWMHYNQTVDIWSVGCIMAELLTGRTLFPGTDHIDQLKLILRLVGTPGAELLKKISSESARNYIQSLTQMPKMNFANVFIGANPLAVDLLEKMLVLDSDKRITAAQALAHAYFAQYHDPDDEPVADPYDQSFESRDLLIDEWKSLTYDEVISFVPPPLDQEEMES

The first series addresses T1, human p38 MAP kinase (Homo sapiens, UniProt Q16539).
T1 construct: FLAG (N); made in house; host or cells: Sf-21 insect cells, co-infected with baculoviruses BAC-HP38 and BAC-caMKK3
Briefly: p38 MAP kinase inhibition, 32P incorporation into Myelin Basic Protein. It counts as biochemical. Particulars: active type p38 MAP kinase, Myelin Basic Protein substrate, 60 minutes at 30° C.; read-out: IC50 (concentration inhibiting 50% of 32P incorporation into the acid insoluble fraction). As to the method: (1) Cloning of Human p38 MAP Kinase Gene and Preparation of Recombinant Baculovirus
(3) Preparation of Active Type p38 MAP Kinase
Sf-21 cells were inoculated on 100 mL Sf-900II SF medium (GIBCOBRL) to give 1×10^6 cells/mL, then, cultured for 24 hours at 27° C. Each 0.2 mL of virus stocks BAC-HP38 and BAC-caMKK3 of the recombinant baculovirus were added, then, cultured for further 48 hours. Cells were separated from the culture solution by centrifugal separation (3000 rpm, 10 min.), then, washed with PBS twice. The cells were suspended in 10 mL of Lysis buffer (25 mM HEPES (pH7.5), 1% TritonX, 130 mM NaCl, 1 mM EDTA, 1 mM DTT, 25 mM β-glycerophosphate, […], 1 mM APMSF, 1 mM Sodium orthovanadate), then, treatment by Homogenizer (POLYTRON) for 2 minutes at 20000 rpm was performed twice to lyse the cells. […]
(4) To 37.5 μL of a reaction solution (25 mM HEPES (pH 7.5), 10 mM Magnesium Acetate) containing 260 ng of active type p38 MAP kinase and 1 μg of Myelin Basic Protein was added 2.5 μL of a sample compound dissolved in DMSO, then, the mixture was kept at 30° C. for 5 minutes. […] After drying for 60 minutes at 45° C., 40 μL of Microscint 0 (Packard Japan) was added, and radiation activity was measured by Top Counter (Packard Japan). […]
For the compound `Cc1cccc(-c2nc(N(C)C(=O)c3ccc(C)nc3)sc2-c2ccnc(NC3CCCC3)c2)c1` [Example 46-4], the IC50 is 17 nM.

Test system in the next series: not given
Experiment: not given
Conditions: not given
Consider `Cc1cccc(-c2nc(N(C)C(=O)c3ccc(C)nc3)sc2-c2ccnc(NC3CCCC3)c2)c1` [Example 46-4], for which the melting point lay within 176 to 177 °C. As to `Cc1cc(C)cc(-c2nc(-c3ccc(S(C)(=O)=O)cc3)sc2-c2ccnc(C)c2)c1` [Example Compound 58-1, 4-(3,5-dimethylphenyl)-5-(2-methyl-4-pyridyl)-2-(4-methylsulfonylphenyl)-1,3-thiazole], the melting point lay in the range of 196 to 197 °C. The same measure, in the same setting: under `Cc1cccc(-c2nc(-c3ccc(S(C)(=O)=O)cc3)sc2-c2cc(C)nc(C)c2)c1` [Example Compound 58-2, 5-(2,6-dimethyl-4-pyridyl)-4-(3-methylphenyl)-2-(4-methylsulfonylphenyl)-1,3-thiazole] stands 182 to 184 °C; under `Cc1cc(C)cc(-c2nc(-c3ccc(S(C)(=O)=O)cc3)sc2-c2cc(C)nc(C)c2)c1` [Example Compound 58-3, 4-(3,5-dimethylphenyl)-5-(2,6-dimethyl-4-pyridyl)-2-(4-methylsulfonylphenyl)-1,3-thiazole], 217 to 220 °C. With `Cc1cccc(-c2nc(-c3ccc(S(C)(=O)=O)cc3)sc2-c2ccnc(F)c2)c1` [Example Compound 58-4, 5-(2-fluoro-4-pyridyl)-4-(3-methylphenyl)-2-(4-methylsulfonylphenyl)-1,3-thiazole], the melting point lay within 195 to 199 °C. Compound `Cc1cc(-c2sc(-c3ccc(S(C)(=O)=O)cc3)nc2-c2ccc(F)cc2)ccn1` [Example Compound 58-5, 4-(4-fluorophenyl)-5-(2-methyl-4-pyridyl)-2-(4-methylsulfonylphenyl)-1,3-thiazole] yielded a melting point of 190 to 192 °C. Regarding `CC(=O)Nc1cc(-c2sc(-c3ccc(S(C)(=O)=O)cc3)nc2-c2cccc(Cl)c2)ccn1` [Example Compound 58-6, N-[4-[4-(3-chlorophenyl)-2-(4-methylsulfonylphenyl)-1,3-thiazol-5-yl]-2-pyridyl]acetamide], the melting point fell in the range of 216 to 217 °C. For the compound `CCC(=O)Nc1cc(-c2sc(-c3ccc(S(C)(=O)=O)cc3)nc2-c2cccc(Cl)c2)ccn1` [Example Compound 58-7, N-[4-[4-(3-chlorophenyl)-2-(4-methylsulfonylphenyl)-1,3-thiazol-5-yl]-2-pyridyl]propionamide], the melting point lay within 224 to 225 °C. Same read-out and setting: under `CC(C)(C)C(=O)Nc1cc(-c2sc(-c3ccc(S(C)(=O)=O)cc3)nc2-c2cccc(Cl)c2)ccn1` [Example Compound 58-8, N-[4-[4-(3-chlorophenyl)-2-(4-methylsulfonylphenyl)-1,3-thiazol-5-yl]-2-pyridyl]pivalamide] stands 122 to 123 °C. Still for that read-out and setting: under `Cc1cccc(-c2nc(NC(=O)OCCCl)sc2-c2ccnc(C)c2)c1` [Example Compound 62, 2-chloroethyl[4-(3-methylphenyl)-5-(2-methyl-4-pyridyl)-1,3-thiazol-2-yl]carbamate] stands 156 to 158 °C; under `Cc1cccc(-c2nc(NC(=O)NOc3ccccc3)sc2-c2ccnc(C)c2)c1` [Example Compound 64, N-[4-(3-methylphenyl)-5-(2-methyl-4-pyridyl)-1,3-thiazol-2-yl]-N′-phenyloxyurea], 154 to 155 °C. Still for that read-out and setting: to `Cc1cccc(-c2nc(N3CCNC3=O)sc2-c2ccnc(C)c2)c1` [Example Compound 66, 1-[4-(3-methylphenyl)-5-(2-methyl-4-pyridyl)-1,3-thiazol-2-yl]imidazolidin-2-one] belongs 200 to 201 °C; to `Cc1cccc(-c2nc(-c3ccc(S(C)(=O)=O)cc3)sc2-c2cc[n+]([O-])c(C)c2)c1` [Example Compound 68-1, 4-[4-(3-methylphenyl)-2-(4-methylsulfonylphenyl)-1,3-thiazol-5-yl]-2-methylpyridine N-oxide], 197 to 198 °C; to `CCc1nc(-c2cccc(Br)c2)c(-c2ccnc(NC(=O)OC(C)(C)C)c2)s1` [Example Compound 75-1, 4-(3-bromophenyl)-5-[2-(tert-butoxycarbonylamino)-4-pyridyl]-2-ethyl-1,3-thiazole], 172 to 174 °C. Regarding `CCc1nc(-c2cccc(Br)c2)c(-c2ccnc(N)c2)s1` [Example Compound 75-2, 4-[4-(3-bromophenyl)-2-ethyl-1,3-thiazol-5-yl]-2-pyridylamine], the melting point fell in the range of 132 to 134 °C. On the same count and under the same terms, under `CCc1nc(-c2ccccc2)c(-c2ccnc(NC(=O)OC(C)(C)C)c2)s1` [Example Compound 79-1, 5-[2-(tert-butoxycarbonylamino)-4-pyridyl]-2-ethyl-4-phenyl-1,3-thiazole] stands 154 to 155 °C; under `CCc1nc(-c2ccccc2)c(-c2ccnc(NC(C)=O)c2)s1` [Example Compound 82-1, N-[4-(2-ethyl-4-phenyl-1,3-thiazol-5-yl)-2-pyridyl]acetamide], 175 to 176 °C.

A further series relates to TNF-α production in THP-1 cells. Briefly: Inhibitory activity of TNF-α production in LPS-stimulated THP-1 cells. Conditions: Homo sapiens, LPS 5 μg/mL, 4 hours, TNF-α by ELISA, read-out: IC50 (concentration inhibiting 50% of TNF-α production). It counts as cell-based. As for the experimental part: Measurement of Inhibitory Activity of TNF-α Production
THP-1 cells cultured in a PRMI 1640 medium (Life Technologies, Inc., USA) containing 1% inactivated fetal bovine serum (Life Technologies, Inc.) and 10 mM HEPES (pH 7.5) were inoculated on a 96 well plate to give 1×10^5 cells/well, then, 1 μL of a sample compound dissolved in DMSO was added. After incubation for 1 hour at 37° C. in a CO2 incubator, LPS (Wako Pure Chemical Industries Ltd.) was added to give a final concentration of 5 μg/mL. After incubation for 4 hours at 37° C. in a CO2 incubator, the supernatant was obtained by centrifugal separation. The TNF-α concentration in the supernatant was measured by ELISA (R&D Systems, Quantikine Kit). The concentration (IC50 value) of a sample compound necessary for inhibiting 50% of TNF-α production was calculated by PRISM 2.01 (GraphPad Software).
In general terms: An ELISA detects its analyte on a solid surface through an enzyme-linked reagent.
For `CCc1nc(-c2cccc(Cl)c2)c(-c2ccnc(NC(C)=O)c2)s1` [Example 30-2, N-[4-[4-(3-chlorophenyl)-2-ethyl-1,3-thiazol-5-yl]-2-pyridyl]acetamide], the IC50 turned out to be 120 nM.

On to `CCc1nc(-c2cccc(Cl)c2)c(-c2ccnc(NC3CCCCC3)c2)s1` [Example 36-10, 4-[4-(3-chlorophenyl)-2-ethyl-1,3-thiazol-5-yl]-N-cyclohexyl-2-pyridylamine], for which the IC50 was 55 nM. Still for that read-out and setting: under `Cc1cccc(-c2nc(N(C)C(=O)c3ccc(C)nc3)sc2-c2ccnc(NC3CCCC3)c2)c1` [Example 46-4] stands 82 nM; under `CCC(=O)Nc1cc(-c2sc(-c3ccc(S(C)(=O)=O)cc3)nc2-c2cccc(Cl)c2)ccn1` [Example 58-7, N-[4-[4-(3-chlorophenyl)-2-(4-methylsulfonylphenyl)-1,3-thiazol-5-yl]-2-pyridyl]propionamide], 21 nM.
